The subject of series [1] is nitrosoamine-induced pancreatic cancer. Kind of series: laser irradiation to the extirpated organ (excited fluorescent spectrum, N2-PLS measurement), tumor to tissue ratio. The class given is in vivo, Golden hamsters. As to conditions: i.v. 25 mg/kg bodyweight, organs extirpated at 24 hours after administration. On the procedure: Golden hamsters (males, 5 per group, bodyweight approximately 150 g) were implanted subcutaneously tumor cells of the nitrosoamine-induced pancreatic cancer. After 14 to 21 days following implantation, animals were intravenously (i.v.) administered the test substance EG-Ga-DP-diGly (10 mg/ml) which had been diluted with phosphate buffer at 25 mg/kg bodyweight. At 24 hours after administration, the organs including the tumor were extirpated, irradiated with N2-pulsed laser (N2, 337 nm, 2 ns, 400 - 1000 nm), and measured of excited fluorescent spectrum. The wavelengths of 600 - 900 nm were studied using the peak wavelength of NADH at 470 nm as a reference. (N2-PLS measurement). […] (Tumor to tissue ratio).
Excited fluorescent spectra of the organs extirpated at 24 hours after administration were measured, and the peak wavelength at 600 - 900 nm was calculated by setting the peak wavelength at 470 nm as the reference 1. As fluorescence in Mn, Fe and Cu complexes is not sufficiently intense as to enable N2-PLS measurement, the extraction method was applied to these compounds. At 24 hours following administration, the organs were extracted with an organic solvent (such as chloroform-methanol) via acetone powder, and the obtained extract was measured of UV or HPLC to calculate the tumor to tissue ratio.

Series [2] shares this test system. Kind of series: in vivo hemorrhagic necrosis effect. To be noted: for photograph of a cancer mass (Fig. 1) / photograph of a cancer mass (Fig. 2): 24 hours after administration, Cn-Ga-DP-diAsp; for photograph of a cancer mass (Fig. 1): n = odd numbers; for Hemorrhagic necrosis effect: intensity of hemorrhagic necrosis at 24 hours following i.v. administration, and pathological study; for photograph of a cancer mass (Fig. 2): n = even numbers. On the set-up: species or system hamsters; key to Hemorrhagic necrosis effect: four scales of G4, G3, G2 and G1; four scales of G4, G3, G2 and G1; four scales of G4, G3, G2 and G1; four scales of G4, G3, G2 and G1. On the procedure:
Cancer bearing hamsters of Experiment 1 were i.v. administered the test substance C6-Ga-DP-diAsp (10) (10 mg/ml) which had been diluted with phosphate buffer at 25 mg/kg bodyweight and 12.5 mg/kg bodyweight respectively. The animals were exsanguinated and autopsied at 24 hours after administration, and observed.
The evaluation was based on the four scales of G4, G3, G2 and G1.

Series [3] has as its system Leukemia cells of a mouse (P388). The series is described as follows: in vitro photosensitivity test (cell growth inhibition ratio). The class given is cell-based. To be noted: irradiated at 10,000 lux for 1 hour, incubated for 48 hours, versus group shielded from light. On the procedure:
Leukemia cells of a mouse (P388) were placed in wells (a plate with 24 wells) at 5 x 10^4/well, and incubated for 2 hours. The test materials C8-Ga-DP-diAsp (12), C10-Mn-DP-diAsp (37) and photofrin II each at concentrations of 1.56, 3.13, 6.25, 12.5, 25, and 50 ng/ml (common ratio : 2) were prepared. The specified amounts of these test solutions were added to the above culture, irradiated at 10,000 lux for 1 hour, incubated for 48 hours, and the cells per one well were counted. A group shielded from light using an aluminium foil during irradiation was provided as control. The index of photosensitivity was obtained by dividing the cell counts of the respective groups with the cell count of an untreated group provided separately (cell growth inhibition ratio (%)).
However, this was attributed to the toxicity of the test material per se rather than to irradiation.

The subject of series [4] is nitrosoamine-induced pancreatic cancer. The series is described as follows: in vivo cell growth inhibition effect (tumor size by slide calipers). More on the design: species or system hamsters. To be noted: i.v. 25 mg/kg bodyweight. As for the experimental part: Tumor bearing hamsters of Experiment 1 were i.v. administered the test substance C10-Mn-DP-diAsp (37) (10 mg/ml) diluted by phosphate buffer at 25 mg/kg bodyweight. The tumor size was measured supracutaneously using slide calipers on an appropriate day following administration.

Series [5] is described as follows: luminescence properties of porphyrin derivatives (Table 1). The class given is physicochemical. An excerpt:
There are two stages of destruction; Mechanism I under which the pigments are excited by light to assume the triple state which directly destroys the cancer cells, and Mechanism II under which the pigments in the triple state further excite oxygen to form the singlet state oxygen (activated oxygen) leading to cell necrosis. In the case of porphyrin derivatives, the Mechanism II is considered prevalent. By measuring the triple state life time (the fluorescence and phosphorescence life time) which indicates porphyrin's triple state, the length of phosphorescence life time is compared to reveal the intensity of photo-sensitivity. […] In other words, phosphorescence life time of metalloporphyrins coordinated with such metals as Zn and Ga is long while that of those coordinated with Mn, Fe, or Cu is very short.

Consider `CCCCCCCOC(C)C1=C(C)C2=Cc3c(C(C)OCCCCCCC)c(C)c4[n]3[Ga][n]3c(c(C)c(CCC(=O)NC(CC(=O)O)C(=O)O)c3=CC3=NC(=C4)C(C)=C3CCC(=O)NC(CC(=O)O)C(=O)O)=CC1=N2` (stereo not drawn) [(11) C7-Ga-DP-diAsp, 2,4-bis(1-heptyloxyethyl)-Ga-deuteroporphynyl diaspartic acid], for which, in series [1], the tumor/tissue cancer/ kidney came out at 4.88, the tumor/tissue cancer/ liver worked out at 2.96, the tumor/tissue cancer/ lung is listed as 2.92 and the tumor/tissue cancer/ serum was 0.89. For the same compound, in series [2], the “photograph of a cancer mass (Fig. 1)” value is given as “hemorrhagic necrosis” and the Hemorrhagic necrosis effect result is recorded as “G4”.

As to `CCCCCCCCOC(C)C1=C(C)C2=Cc3c(C(C)OCCCCCCCC)c(C)c4[n]3[Ga][n]3c(c(C)c(CCC(=O)NC(CC(=O)O)C(=O)O)c3=CC3=NC(=C4)C(C)=C3CCC(=O)NC(CC(=O)O)C(=O)O)=CC1=N2` (stereo not drawn) [(12) C8-Ga-DP-diAsp, 2,4-bis(1-octyloxyethyl)-Ga-deuteroporphynyl diaspartic acid], the “concentration at which photosensitivity is manifested” value in series [3] is ≥ 1.0 ng/mL. In addition, in series [1], the tumor/tissue cancer/ kidney amounted to 2.12, the tumor/tissue cancer/ liver is reported as 1.47, the tumor/tissue cancer/ lung came out at 2.20 and the tumor/tissue cancer/ serum was 0.29. Also, in series [2], the “photograph of a cancer mass (Fig. 2)” value is listed as “hemorrhagic necrosis” and the Hemorrhagic necrosis effect entry is recorded as “G3”.

As to `CC1=C(CCC(=O)NC(CC(=O)O)C(=O)O)C2=NC1=Cc1c(C)c(C(C)OCCc3ccccc3)c3[n]1[Ga][n]1c(c(C)c(CCC(=O)NC(CC(=O)O)C(=O)O)c1=C2)=CC1=NC(=C3)C(C)=C1C(C)OCCc1ccccc1` (stereo not drawn) [(14) C8(Phenethyl)-Ga-DP-diAsp, 2,4-bis(1-phenethyloxyethyl)-Ga-deuteroporphynyl diaspartic acid], in series [1], the tumor/tissue cancer/ kidney was found to be 3.79, the tumor/tissue cancer/ liver amounted to 3.79, the tumor/tissue cancer/ lung was 2.89 and the tumor/tissue cancer/ serum is recorded as 0.72. In addition, the Hemorrhagic necrosis effect result in series [2] is recorded as “G1”.

Take `CCCCCCCCCOC(C)C1=C(C)c2cc3[nH]c(cc4nc(cc5[nH]c(cc1n2)c(C)c5C(C)OCCCCCCCCC)C(C)=C4CCC(=O)NC(CC(=O)O)C(=O)O)c(CCC(=O)NC(CC(=O)O)C(=O)O)c3C.[Ga]` (stereo not drawn) [(15) C9-Ga-DP-diAsp, 2,4-bis(1-nonyloxyethyl)-Ga-deuteroporphynyl diaspartic acid]: in series [1], the tumor/tissue cancer/ kidney was determined as 3.54, the tumor/tissue cancer/ liver was 2.07, the tumor/tissue cancer/ lung is 3.40 and the tumor/tissue cancer/ serum is on record as 1.12. Besides, in series [2], the “photograph of a cancer mass (Fig. 1)” value is “hemorrhagic necrosis” and the Hemorrhagic necrosis effect entry is given as “G2”.

As to `CC(C)=CCC/C(C)=C/COC(C)C1=C(C)C2=Cc3c(C(C)OC/C=C(\C)CCC=C(C)C)c(C)c4[n]3[Ga][n]3c(c(C)c(CCC(=O)NC(CC(=O)O)C(=O)O)c3=CC3=NC(=C4)C(C)=C3CCC(=O)NC(CC(=O)O)C(=O)O)=CC1=N2` (stereo not drawn) [(17) C10(Gera)-Ga-DP-diAsp, 2,4-bis(1-geranyloxyethyl)-Ga-deuteroporphynyl diaspartic acid], in series [1], the tumor/tissue cancer/ kidney came out at 3.82, the tumor/tissue cancer/ liver is recorded as 3.33, the tumor/tissue cancer/ lung turned out to be 4.88 and the tumor/tissue cancer/ serum is 2.19. The Hemorrhagic necrosis effect result in series [2] is listed as “G2”.

On to `CC(C)=CCCC(C)CCOC(C)C1=C(C)C2=Cc3c(C(C)OCCC(C)CCC=C(C)C)c(C)c4[n]3[Ga][n]3c(c(C)c(CCC(=O)NC(CC(=O)O)C(=O)O)c3=CC3=NC(=C4)C(C)=C3CCC(=O)NC(CC(=O)O)C(=O)O)=CC1=N2` (stereo not drawn) [(18) C10(Citro)-Ga-DP-diAsp, 2,4-bis(1-citronellyloxyethyl)-Ga-deuteroporphynyl diaspartic acid], for which, in series [1], the tumor/tissue cancer/ kidney amounted to 15.66, the tumor/tissue cancer/ liver came to 11.37, the tumor/tissue cancer/ lung was 12.39 and the tumor/tissue cancer/ serum came out at 2.82. In series [2], the Hemorrhagic necrosis effect entry is “G2”.

With `CC1=C(CCC(=O)NC(CC(=O)O)C(=O)O)C2=NC1=Cc1c(C)c(C(C)OCCC(C)CCCC(C)C)c3[n]1[Ga][n]1c(c(C)c(CCC(=O)NC(CC(=O)O)C(=O)O)c1=C2)=CC1=NC(=C3)C(C)=C1C(C)OCCC(C)CCCC(C)C` (stereo not drawn) [(19) C10(H2Citro)-Ga-DP-diAsp, 2,4-bis(1-dihydrocitronellyloxyethyl)-Ga-deuteroporphynyl diaspartic acid], in series [1], the tumor/tissue cancer/ kidney turned out to be 11.49, the tumor/tissue cancer/ liver turned out to be 9.09, the tumor/tissue cancer/ lung came to 11.11 and the tumor/tissue cancer/ serum was determined as 3.50. The Hemorrhagic necrosis effect entry in series [2] is “G2”.

Turning to `CCCCCCCCCCCCOC(C)C1=C(C)c2cc3[nH]c(cc4nc(cc5[nH]c(cc1n2)c(C)c5C(C)OCCCCCCCCCCCC)C(C)=C4CCC(=O)NC(CC(=O)O)C(=O)O)c(CCC(=O)NC(CC(=O)O)C(=O)O)c3C.[Ga]` (stereo not drawn) [(22) C12-Ga-DP-diAsp, 2,4-bis (1-dodecyloxyethyl)-Ga-deuteroporphynyl diaspartic acid], in series [1], the tumor/tissue cancer/ kidney is on record as 8.54, the tumor/tissue cancer/ liver was 4.38, the tumor/tissue cancer/ lung was determined as 7.00 and the tumor/tissue cancer/ serum is 1.35. In series [2], the “photograph of a cancer mass (Fig. 2)” value is listed as “hemorrhagic necrosis” and the Hemorrhagic necrosis effect entry was “G2”.

For the compound `CCCCCCCCCCOC(C)C1=C(C)c2cc3[nH]c(cc4nc(cc5[nH]c(cc1n2)c(C)c5C(C)OCCCCCCCCCC)C(C)=C4CCC(=O)NC(CC(=O)O)C(=O)O)c(CCC(=O)NC(CC(=O)O)C(=O)O)c3C.[Mn]` (stereo not drawn) [(37) C10-Mn-DP-diAsp, 2,4-bis(1-decyloxyethyl)-Mn-deuteroporphynyl diaspartic acid], the “tumor growth compared to the control group (Fig. 6)” value in series [4] is reported as “notable tumor growth inhibitory effect”. For the same compound, the photosensitivity result in series [3] is given as “no photosensitivity”. Besides, in series [2], the Hemorrhagic necrosis effect entry is on record as “G3”.

Compound `C=CC1=C(C)c2cc3[n-]c(cc4nc(cc5[n-]c(cc1n2)c(C)c5CCC(=O)OC)C(CCC(=O)OC)=C4C)c(C)c3C=C.[Co+2]` [Co-PP-Me] had an Absorbance in series [5] of 570 nm.

Take `C=CC1=C(C)c2cc3[n-]c(cc4nc(cc5[n-]c(cc1n2)c(C)c5CCC(=O)OC)C(CCC(=O)OC)=C4C)c(C)c3C=C.[Cu+2]` [Cu-PP-Me]: in series [5], the Absorbance stood at 572 nm and the Phosphorescence was found to be 705 nm. For the same compound, in series [5] (Filter paper), the Phosphorescence life time came to 20 µs. The Phosphorescence life time in series [5] (Solution) was determined as 100 µs.

Take `C=CC1=C(C)c2cc3[n-]c(cc4nc(cc5[n-]c(cc1n2)c(C)c5CCC(=O)OC)C(CCC(=O)OC)=C4C)c(C)c3C=C.[Mg+2]` [Mg-PP-Me]: in series [5], the Absorbance came to 590 nm and the Fluorescence was 600 nm.

`C=Cc1c(C)c2cc3[nH]c(cc4nc(cc5nc(cc1[nH]2)C(C)=C5CCC(=O)OC)C(CCC(=O)OC)=C4C)c(C)c3C=C` [PP-Me]: in series [5], the Absorbance is given as 633 nm and the Fluorescence turned out to be 635 nm. Besides, the Phosphorescence life time in series [5] (Filter paper) worked out at 1.8 ms.

In series [5], “Ga-protoporphyrin dimethyl ester [Ga-PP-Me]” registered an Absorbance of 570 nm, a Fluorescence of 575 nm and a Phosphorescence of 715 nm. In addition, in series [5] (Filter paper), the Phosphorescence life time is recorded as 50 ms. Besides, the Phosphorescence life time in series [5] (Solution) was 200 ms.

The record behind these values is patent EP0350948B1, “Porphyrin derivatives” (TOYOHAKKA KOGYO KABUSHIKI KAISHA, priority 1988, dated 1990).
